# In patent US8232402B2, “Quinolinone farnesyl transferase inhibitors for the treatment of synucleinopathies and other indications” (Link Medicine Corporation, priority 2008, dated 2012):
# Entries after “also recorded” stand apart in the source; their conditions may differ.
# What was measured:
# farnesylated UCH-L1 = test: Farnesylated UCH-L1 in cortex membrane fraction of α-synuclein transgenic mice (quantitative Western blot); assay type: in vivo; conditions: 35 mg/kg twice a day, 30 days
# Experimental: Farnesyl transferase inhibitors Zarnestra and OSI-754 were administered to mice of the α-synuclein transgenic line described in Masliah et al. (Masliah et al. “Dopaminergic loss and inclusion body formation in alpha-synuclein mice: implications for neurodegenerative disorders” Science 287(5456): 1265-69, 2000; incorporated herein by reference). Animals from this line have α-synuclein neuronal inclusions in the cortex, hippocampus, and the olfactory bulb (Masliah et al. “Dopaminergic loss and inclusion body formation in alpha-synuclein mice: implications for neurodegenerative disorders” Science 287(5456): 1265-69, 2000; incorporated herein by reference). […]
# Total α-synuclein levels were analyzed by a sandwich ELISA assay similar to one previously described (El-Agnaf et al. “Detection of oligomeric forms of alpha-synuclein protein in human plasma as a potential biomarker for Parkinson's disease” FASEB J. 20(3):419-25, 2006; incorporated herein by reference). […] Transgenic mice that received Zarnestra had lower α-synuclein protein levels than vehicle-treated transgenic mice and nearly the same as that detected in the non-transgenic group in both the cytoplasmic (FIG. 10) and membrane fractions (FIG. 11), which represent soluble and insoluble α-synuclein, respectively. […] The amount of UCH-L1 was determined by quantitative Western Blot. […]
# α-synuclein = α-synuclein sandwich ELISA in brain fractions of α-synuclein transgenic mice; assay type: in vivo
# Experimental: (§1) Farnesyl transferase inhibitors Zarnestra and OSI-754 were administered to mice of the α-synuclein transgenic line described in Masliah et al. (Masliah et al. “Dopaminergic loss and inclusion body formation in alpha-synuclein mice: implications for neurodegenerative disorders” Science 287(5456): 1265-69, 2000; incorporated herein by reference). Animals from this line have α-synuclein neuronal inclusions in the cortex, hippocampus, and the olfactory bulb (Masliah et al. “Dopaminergic loss and inclusion body formation in alpha-synuclein mice: implications for neurodegenerative disorders” Science 287(5456): 1265-69, 2000; incorporated herein by reference). Transgenic mice were orally administered either FTI in 20% cyclodextrin solution or the same volume of vehicle alone twice a day for 30 or 90 days. In some cases, non-transgenic mice also received vehicle twice a day for 30 to 90 days. At the end of treatment, mice were sacrificed, and the brains removed and hemisected. One hemisphere of each was fixed in 4% paraformaldehyde/PBS (pH 7.4), cryoperserved, then sectioned for histology. The other hemisphere was subdivided into four brain regions, including the cortex and hippocampus, that were homogenized and processed into cytoplasmic and membrane fractions.
# Total α-synuclein levels were analyzed by a sandwich ELISA assay similar to one previously described (El-Agnaf et al. “Detection of oligomeric forms of alpha-synuclein protein in human plasma as a potential biomarker for Parkinson's disease” FASEB J. 20(3):419-25, 2006; incorporated herein by reference). In the cortex of vehicle treated animals, α-synuclein protein levels in the α-synuclein transgenic line are greater than in non-transgenic mice in both cytoplasmic (FIG. 10) and membrane fractions (FIG. 11). Transgenic mice that received Zarnestra had lower α-synuclein protein levels than vehicle-treated transgenic mice and nearly the same as that detected in the non-transgenic group in both the cytoplasmic (FIG. 10) and membrane fractions (FIG. 11), which represent soluble and insoluble α-synuclein, respectively. Farnesylated UCH-L1 in the cortex is contained in the membrane fraction. The amount of UCH-L1 was determined by quantitative Western Blot.
# α-synuclein inclusions = test: Inclusion histology in α-synuclein transgenic mice (α-synuclein and ubiquitin immunostaining, Campbell-Switzer); assay type: in vivo
# Experimental: as §1
# Formation of α-synuclein inclusions in the cortex and hippocampus was probed by immunostaining with an antibody for human α-synuclein. Cells positive for human α-synuclein were quantified. […] These regions were also analyzed for ubiquitin-immunoreactive inclusions and by the Campbell Switzer method of silver staining. Ubiquitin is known to be a constituent of Lewy bodies and in the α-synculein inclusions found in the transgenic mouse line used in the study (Masliah et al. “Dopaminergic loss and inclusion body formation in alpha-synuclein mice: implications for neurodegenerative disorders” Science 287(5456): 1265-69, 2000; incorporated herein by reference). […] Campbell-Switzer staining is a general marker of Lewy Body type inclusions (Uchihara et al. “Silver stainings distinguish Lewy bodies and glial cytoplasmic inclusions: comparison between Gallyas-Braak and Campbell-Switzer methods” Acta Neuropathol (Berl) 110(3):255-60, 2005; incorporated herein by reference).
# Formation of α-synuclein inclusions in the cortex and hippocampus was probed by immunostaining with an antibody for human α-synuclein. Cells positive for human α-synuclein were quantified.
# [1] = tested on: α-synuclein in COS-7 cells; test: α-synuclein degradation assay in COS-7 cells; assay type: cell-based
# Text: Plasmids: C220S cDNA was generated by PCR site-specific mutagenesis. For the PCR, the 5′ primer is uchforw SEQ ID NO: 1 ([…]), and 3′ primer is uchc220s SEQ ID NO:2 (CTAAGA […]). Wt UCH-L1 served as the template. The PCR fragment was inserted into pcDNA vector. For S 18YC220S mutant, S 18Y UCH-L1 served as the template in PCR. For the FLAG tagged UCH-L1, the 5′ primer is FLAGuchforw SEQ ID NO: 3 ([…] CGATGGAG), and the 3′ primer is uchrev SEQ ID NO: 4 ([…]). Wt UCH-L1 or C220S served as the template. PCR fragment was purified and inserted into pcDNA vector. For the FLAG tagged UCH-L3, the 5′ primer is L3HindIII SEQ ID NO: 5 (CTAAAGCTTATGGACTAC […]), the 3′ primer is L3XhoISAA SEQ ID NO: 6 ([…]). […] After 24 hours of incubation, the cells were lysed with Tris buffer (50 mM Tris, 2% SDS, 0.1% NP-40), and subjected to SDS-PAGE, followed by quantitative Western blotting.
# The C220S mutation eliminated the ability of S118 to promote α-synuclein accumulation in COS-7 cells but had no effect on the S18Y polymorph (FIG. 2, panel C): the relative amount of 16 kDa α-synuclein was quantified and normalized against the amount of actin in transfected COS-7 cells with the presence of UCH-L1 variants. […]
# [2] = tested on: SH-SY5Y cells overexpressing α-synuclein; test: α-synuclein toxicity in SH-SY5Y cells infected with α-synuclein-expressing adenovirus (Trypan blue, MTT); assay type: cell-based
# Experimental: Viral Infection: Viral infection and MTT assay in SH-SY5Y cells: The viruses were amplified and purified according to the published procedure. SH-SY5Y cells were grown on 100 mm petri-dishes and induced with 100 nM retinoic acid for 3-5 days before the virus infection with M.I.O at 75. Viruses were diluted with DPBS to desired M.I.O. After four hours of incubation, 10 ml growth medium was added. On the second day, cells were splitted into 96-well plates and treated with compounds for next 48 hours. The growth medium in each well was replaced with growth medium with 5 ug/ml MTT. Medium was removed after three hours incubation, and 200 ul isopropyl (0.04N HCl) was added into each well. The signal was read at 570 nm.
# Viable cell counting: At stated time points, SH-SY5Y cells were trypsinized with 100 ul trypsin-EDTA for 1 minute and neutralized with 400 ul growth medium. Cell suspension was made up by mixing 0.2 ml of cells in growth medium, 0.3 ml of HBSS and 0.5 ml of 0.4% Trypan Blue solution. Viable cell numbers were counted by standard cell counting chamber.
# Since α-synuclein neurotoxicity is dose-dependent, it follows that accumulation of α-synuclein, caused by UCH-L1 farnesylation, should promote its toxicity. […] These cells express high endogenous levels of UCH-L1. […] The unit of y-axis is 10^5/ml. (F) Cell viability was assessed by the amount of metabolic activity using MTT assay. […]
# UCH-L1 in SH-SY5Y cells = test: UCH-L1 membrane association and level in SH-SY5Y cells (2D electrophoresis, Western blot); assay type: cell-based
# Experimental: Membrane fractionation: Cells were harvested by scraping and washed with PBS. Cell pellet was suspended in lysis buffer (50 mM Tris-HCl, 1 mM EDTA) supplemented with protease inhibitor cocktail (Sigma) and homogenized by passing through 26G needles 10 times. Suspension was clarified by spinning at 600 g for 5 minutes. Clarified suspension was ultracentrifuged at 100,000 g for 2 hours and separated into membrane and cytosol. Membrane fraction was washed with washing buffer (50 mM Tris-HCl, 1 mM EDTA 1 M NaCl), and pelleted each time with bench-top centrifuge.
# 2D electrophoresis: For the isolation of total cellular protein, cultured SH-SY5Y cells maintained as described above were rinsed with ice-cold PBS. Cells were lysed in 1 ml dSDS buffer (50 mM Tris-HCl, pH 8.0 0.1% SDS) supplemented with protease inhibitor cocktail. Lysates were boiled for 3 min, and were treated with Dnase and Rnase as described. Lysates were precipitated with ice-cold acetone for at least 2 hours, and pellets were resuspended in 2D sample buffer (8M urea, 0.5% CHAPS, 0.2% DTT, 0.5% IPG buffer, 0.002% bromophenol blue). 2D electrophoresis was carried out according to manufacture's protocol (Amersham Life Science). 7 cm pH 4-7 strips were used. For SH-SY5Y membrane fraction, culture SH-SY5Y cells were rinsed with cold PBS and harvested with lysis buffer (50 mM Tris-HCl, pH 8.0, 1 mM ZnAc2, 250 mM sucrose). Lysate was passed through 25G needles for several times and spun at 1000 g for 5 min. Supernatant was centrifuged at 200,000 g for 2 hours. Pellet was extensively washed with lysis buffer and extracted with cold acetone. Pellet was resuspended in 2D sample buffer.
# This species was presumably the fully processed species: farnesylated, truncated and C-terminally methylated.
# [3] = tested on: α-synuclein in SH-SY5Y cells; test: α-synuclein accumulation in infected SH-SY5Y cells (Western blot); assay type: cell-based; conditions: SH-SY5Y cells infected with α-synuclein adenovirus, normalized to actin
# Experimental: Western Blotting: Following transfer of SDS gels onto NC membrane, all membranes were blocked with 5% non-fat milk in TBST (50 mM Tris-HCl pH7.4, 150 mM NaCl, 0.1% Tween 20), and incubated with primary antibody overnight with 1% BSA in TBST, washed three times with TBST, and incubated with horseradish peroxidase-conjugated secondary antibody for 1 hour (Promega). Bound antibodies were detected using enhanced chemiluminascence (NEM).
# Since α-synuclein neurotoxicity is dose-dependent, it follows that accumulation of α-synuclein, caused by UCH-L1 farnesylation, should promote its toxicity. […] These cells express high endogenous levels of UCH-L1. […] The unit of y-axis is 10^5/ml. (F) Cell viability was assessed by the amount of metabolic activity using MTT assay. […] The effect of FTI-277 on the α-synuclein accumulation in the SH-SY5Y infected with α-synuclein-expressing adenovirus were analyzed by Western blotting (B) and the amount of α-synuclein (C) was quantified using NIH Image program and normalized against the amount of actin.
# [4] = tested on: primary dopaminergic cultures; test: α-synuclein toxicity in primary dopaminergic cultures; assay type: cell-based
# [5] = α-synuclein transgenic mice, summary, dose not given
smiles,measurement,setting,value
Cn1cncc1C(N)(c1ccc(Cl)cc1)c1ccc2c(c1)c(-c1cccc(Cl)c1)cc(=O)n2C (centres unmarked) [Zarnestra],amount of farnesylated UCH-L1,farnesylated UCH-L1,decreased the amount of farnesylated UCH-L1
same,levels of α-synuclein protein (ELISA),"α-synuclein; cortex, cytoplasmic and membrane fractions, 35 mg/kg twice a day, 30 days",decreased levels of α-synuclein protein
same,levels of α-synuclein in the cortex,α-synuclein; [5],decrease levels of α-synuclein in the cortex
same,Campbell-Switzer stained inclusions versus vehicle,"α-synuclein inclusions; 35 mg/kg twice a day, 30 days",fewer inclusions
same,ubiquitin-immunoreactive inclusions versus vehicle,"α-synuclein inclusions; 35 mg/kg twice a day, 30 days",fewer ubiquitin-immunoreactive inclusions
same,inclusions versus vehicle,"α-synuclein inclusions; 35 mg/kg twice a day, 30 days, oral",fewer inclusions
same,α-synuclein-positive cells per mm^2 versus vehicle,"α-synuclein inclusions; cortex and hippocampus, 35 mg/kg twice a day, 30 days",significantly fewer
same,inclusions versus vehicle,α-synuclein inclusions; [5],fewer inclusions
CC(=O)N[C@@H](CSC(=O)[C@]1([C@@H](O)C(C)C)NC(=O)[C@H](C)[C@@H]1O)C(=O)O [lactacystin],accumulation of α-synuclein,"[1]; transfected COS-7 cells, 35 μM lactacystin, 24 hours",100%
COC(=O)[C@H](CCSC)NC(=O)c1ccc(NC[C@@H](N)CS)cc1-c1ccccc1 [FTI-277],loss of cells (α-synuclein toxicity),[2],inhibits synuclein toxicity; also recorded: significantly decreased loss of cells
same,total amount of UCH-L1,UCH-L1 in SH-SY5Y cells,reduced the total amount of UCH-L1
same,amount of cytosolic UCH-L1,UCH-L1 in SH-SY5Y cells; compared to DMSO,without affecting
same,amount of membrane bound UCH-L1,UCH-L1 in SH-SY5Y cells; compared to DMSO,significant decrease; also recorded: reducing the amount of membrane-associated protein
same,rate of turnover of UCH-L1,UCH-L1 in SH-SY5Y cells; pulse-chase,increased its rate of turnover
same,α-synuclein levels,[1]; COS-7 cells,lowers α-synuclein levels
same,amount of α-synuclein,[3],reduced the amount of α-synuclein
same,α-synuclein toxicity,[4],inhibit α-synuclein toxicity
